{"source": "ChEMBL document CHEMBL1201862", "about": "“PubChem BioAssay data set” (2004)", "key": {"[1]": {"target": "Paired box protein Pax-8 (Homo sapiens, UniProt Q06710)", "sequence (Q06710 whole entry)": "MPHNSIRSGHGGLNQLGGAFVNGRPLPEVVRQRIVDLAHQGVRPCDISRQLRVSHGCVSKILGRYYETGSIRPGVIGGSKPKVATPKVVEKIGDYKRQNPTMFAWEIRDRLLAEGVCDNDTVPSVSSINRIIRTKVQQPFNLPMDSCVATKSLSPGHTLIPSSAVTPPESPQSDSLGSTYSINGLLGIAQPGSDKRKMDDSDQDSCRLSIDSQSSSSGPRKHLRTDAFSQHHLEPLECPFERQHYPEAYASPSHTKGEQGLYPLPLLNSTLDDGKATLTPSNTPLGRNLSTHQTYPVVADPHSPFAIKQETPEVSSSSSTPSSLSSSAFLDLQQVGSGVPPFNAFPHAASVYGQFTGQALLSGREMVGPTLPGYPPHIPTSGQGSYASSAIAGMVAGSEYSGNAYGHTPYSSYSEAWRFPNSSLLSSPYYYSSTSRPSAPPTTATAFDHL", "assay": "inhibitors of PAX8-driven TPO luciferase reporter, dose response, RMG-I cells, cherry-pick (AID 687027);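 note: luciferase reporter driven by Pax8 target thyroperoxidase promoter measured by SteadyGlo luminescence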", "format": "functional, cell-based"}, "[2]": {"target": "T1, Corticotropin-releasing factor receptor 2/Corticotropin-releasing factor-binding protein (Homo sapiens, UniProt P24387+Q13324)", "T1 sequence (Q13324 whole entry)": "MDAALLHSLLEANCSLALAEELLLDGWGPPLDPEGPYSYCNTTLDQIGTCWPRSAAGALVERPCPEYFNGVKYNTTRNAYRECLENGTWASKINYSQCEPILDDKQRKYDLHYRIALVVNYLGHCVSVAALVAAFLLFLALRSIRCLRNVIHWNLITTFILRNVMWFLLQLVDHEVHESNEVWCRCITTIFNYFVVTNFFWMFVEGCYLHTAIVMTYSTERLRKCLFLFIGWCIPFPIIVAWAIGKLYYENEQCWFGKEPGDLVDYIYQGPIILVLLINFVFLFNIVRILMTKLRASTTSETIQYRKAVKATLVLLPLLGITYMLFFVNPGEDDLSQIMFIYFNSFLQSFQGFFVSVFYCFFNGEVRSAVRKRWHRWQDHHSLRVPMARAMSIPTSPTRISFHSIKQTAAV", "T1 sequence (P24387 whole entry)": "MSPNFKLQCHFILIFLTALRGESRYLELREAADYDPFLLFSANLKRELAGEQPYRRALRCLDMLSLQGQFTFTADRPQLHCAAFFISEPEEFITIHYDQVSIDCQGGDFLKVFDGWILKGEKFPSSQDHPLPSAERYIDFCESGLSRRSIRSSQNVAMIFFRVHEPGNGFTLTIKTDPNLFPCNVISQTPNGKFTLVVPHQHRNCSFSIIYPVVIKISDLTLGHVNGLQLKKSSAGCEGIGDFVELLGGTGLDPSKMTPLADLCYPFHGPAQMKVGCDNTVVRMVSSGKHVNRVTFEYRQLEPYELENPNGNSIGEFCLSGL", "assay": "activators of CRF receptor 2 with binding protein – uHTS hits, confirmation (AID 602473)", "format": "functional", "details": "read-out: EC50_Mean"}, "[3]": {"target": "T1, Corticotropin-releasing factor receptor 2/Corticotropin-releasing factor-binding protein", "assay": "Dose Response confirmation of uHTS hits for small molecule antagonists of the CRF-binding protein and CRF-R2 receptor complex.", "format": "functional", "details": "read-out: IC50_Mean"}, "[4]": {"assay": "growth suppression of PTEN-null colon cells, dose response, cell-based, HCT116 PTEN knockout (AID 1047);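 note: cells exposed to compound for 60 hours before readout; potency for loss of cell viability measured by luminescence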", "format": "functional"}, "[5]": {"assay": "growth suppression of beta-catenin-knockout colon cells, dose response, cell-based, HCT116, human colon tumor (AID 1045);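 note: cells exposed to compound for 60 hours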", "format": "functional"}, "[6]": {"target": "T2, Protein skinhead-1 (Caenorhabditis elegans, UniProt P34707)", "T2 sequence (P34707 whole entry)": "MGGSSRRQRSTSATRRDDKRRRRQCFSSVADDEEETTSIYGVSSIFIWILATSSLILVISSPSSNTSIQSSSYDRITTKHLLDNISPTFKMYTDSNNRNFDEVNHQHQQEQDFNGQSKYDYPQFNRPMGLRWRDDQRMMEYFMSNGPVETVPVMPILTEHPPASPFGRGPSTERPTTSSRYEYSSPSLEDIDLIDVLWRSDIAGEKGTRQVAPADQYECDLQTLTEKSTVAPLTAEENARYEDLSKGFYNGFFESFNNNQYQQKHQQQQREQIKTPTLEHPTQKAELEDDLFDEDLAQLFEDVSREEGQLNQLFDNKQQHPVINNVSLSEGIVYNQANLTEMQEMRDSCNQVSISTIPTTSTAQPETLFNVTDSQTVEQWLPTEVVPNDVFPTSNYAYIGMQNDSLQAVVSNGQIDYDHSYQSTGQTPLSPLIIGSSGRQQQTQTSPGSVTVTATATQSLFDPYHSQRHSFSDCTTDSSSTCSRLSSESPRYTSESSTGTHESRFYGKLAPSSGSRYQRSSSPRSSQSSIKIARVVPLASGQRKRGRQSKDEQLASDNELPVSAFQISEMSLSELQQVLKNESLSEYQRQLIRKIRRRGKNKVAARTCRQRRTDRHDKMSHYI", "format": "functional"}, "[7]": {"tested_on": "Streptococcus sp. 'group A'", "assay": "growth inhibition of control SK(-) GAS strain, dose response, counter-screen for streptokinase expression inhibitor project, luminescence, kanamycin, BacTiterGlo, confirmation (AID 1900)", "format": "functional, organism-based"}, "[8]": {"assay": "Luminescence Cell-Based Dose Response HTS to Identify Inhibitors of 5'UTR Stem-Loop Driven Prion Protein mRNA Translation in H4 Neuroglioblastoma Cells. [Related pubchem assays: 1827 (Project Summary), 1813 (Primary HTS)]", "format": "functional"}, "[9]": {"assay": "inhibitors of firefly luciferase expression or activity, dose response, H4 neuroglioma cells, luminescence (AID 1990)", "format": "functional, cell-based"}, "[10]": {"assay": "inhibitors of SNCA 5'UTR-driven reporter translation, confirmation, H4 neuroglioma cells, luminescence (AID 1988)", "format": "functional, cell-based"}, "[11]": {"tested_on": "Streptococcus", "assay": "Group A Streptococcus viability loss, dose response, counter-screen for streptokinase expression inhibitor project, luminescence, BacTiterGlo (AID 1915);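 note: potency for reduction of bacterial viability or growth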", "format": "functional, organism-based"}}, "note": "The source made the active and inactive calls.", "data": [{"smiles": "C=C(C)c1cccc(C(C)(C)NC(=O)N2CCN(c3ccccc3OC)CC2)c1", "values": [{"measurement": "AC50", "setting": "[1]", "result": "65.2 µM (active)"}]}, {"smiles": "CCn1ncc(C(=O)Nc2ccc([N+](=O)[O-])cc2OC)c1C", "values": [{"measurement": "EC50", "setting": "[2]", "result": "> 53 µM (inactive)"}, {"measurement": "IC50", "setting": "[3]", "result": "> 47.1 µM (inactive)"}]}, {"smiles": "O=C(/C=C/c1ccc(-c2ccccc2[N+](=O)[O-])o1)c1ccccc1", "values": [{"measurement": "EC50", "setting": "[4]", "result": "22.5 µM (active)"}, {"measurement": "EC50", "setting": "[5]", "result": "22.3 µM (active)"}]}, {"smiles": "C[C@@H]1CN([C@@H](C)CO)C(=O)c2cccc(NC(=O)c3ccncc3)c2O[C@@H]1CN(C)S(=O)(=O)c1cccs1", "values": [{"measurement": "AC50", "setting": "[1]", "result": "69.5 µM (active)"}]}, {"smiles": "CC(C1CC1)N(Cc1ccccc1)C(S)=Nc1cccc(C(F)(F)F)c1", "note": "(stereo not drawn)", "values": [{"measurement": "AC50", "setting": "[1]", "result": "33.2 µM (active)"}]}, {"smiles": "COC(=O)[C@]12CCCCC=C1N(Cc1ccc(Cl)cc1Cl)C(=O)[C@H](CC(=O)N1CCN(C(=O)c3ccco3)CC1)C2", "values": [{"measurement": "AC50", "setting": "[1]", "result": "1.33 µM (active)"}]}, {"smiles": "CC(=O)NCCc1cc2cc(C)c(C)cc2nc1O", "values": [{"measurement": "IC50", "setting": "[6]", "result": "> 100 µM (inactive)"}]}, {"smiles": "COc1ccc(Oc2ccc(/C=C/C(=O)c3ccc(O)cc3)cc2[N+](=O)[O-])cc1", "values": [{"measurement": "EC50", "setting": "[4]", "result": "2.53 µM (active)"}, {"measurement": "EC50", "setting": "[5]", "result": "2.14 µM (active)"}]}, {"smiles": "O=C(N/N=C/c1ccccc1O)c1cccc2ccccc12", "values": [{"measurement": "EC50", "setting": "[7]", "result": "1.58 µM (active)"}, {"measurement": "EC50", "setting": "[8]", "result": "17.1 µM (active)"}, {"measurement": "EC50", "setting": "[9]", "result": "2.12 µM (active)"}, {"measurement": "EC50", "setting": "[10]", "result": "6.71 µM (active)"}, {"measurement": "EC50", "setting": "[11]", "result": "6.12 µM (active)"}]}, {"smiles": "N=c1n(CCO)c2ccccc2n1CCOc1ccc(Cl)cc1Cl", "values": [{"measurement": "EC50", "setting": "[4]", "result": "8.23 µM (active)"}, {"measurement": "EC50", "setting": "[5]", "result": "8.45 µM (active)"}]}, {"smiles": "O=C(c1ccc(Br)cc1)N1CCN(c2ncccn2)CC1", "values": [{"measurement": "EC50", "setting": "[2]", "result": "> 53 µM (inactive)"}, {"measurement": "IC50", "setting": "[3]", "result": "> 47.1 µM (inactive)"}]}, {"smiles": "Cc1nn(C(C)C(=O)O)c(=O)c2ccccc12", "note": "(stereo not drawn)", "values": [{"measurement": "EC50", "setting": "[2]", "result": "> 53 µM (inactive)"}, {"measurement": "IC50", "setting": "[3]", "result": "> 47.1 µM (inactive)"}]}, {"smiles": "COc1ccc(S(=O)(=O)NNC(=O)c2csc(-n3nc(C)cc3C(F)(F)F)n2)cc1", "values": [{"measurement": "EC50", "setting": "[2]", "result": "> 53 µM (inactive)"}, {"measurement": "IC50", "setting": "[3]", "result": "> 47.1 µM (inactive)"}]}, {"smiles": "N#C/C(=C\\c1cccnc1)c1ccc(Br)cc1", "values": [{"measurement": "IC50", "setting": "[6]", "result": "> 100 µM (inactive)"}]}, {"smiles": "CC/N=C1\\S/C(=C\\c2ccc(Sc3ccc(Cl)cc3)o2)C(=O)N1CC", "values": [{"measurement": "EC50", "setting": "[8]", "result": "> 120 µM (not active)"}, {"measurement": "EC50", "setting": "[9]", "result": "21.4 µM (active)"}, {"measurement": "EC50", "setting": "[10]", "result": "> 120 µM (not active)"}]}, {"smiles": "O=C(COC(=O)CC1c2ccccc2CCN1S(=O)(=O)c1ccc(F)cc1)Nc1ccccc1", "note": "(stereo not drawn)", "values": [{"measurement": "EC50", "setting": "[2]", "result": "> 53 µM (inactive)"}, {"measurement": "IC50", "setting": "[3]", "result": "> 47.1 µM (inactive)"}]}, {"smiles": "O=[N+]([O-])c1ccc(COc2cccc3cccnc23)cc1", "values": [{"measurement": "IC50", "setting": "[6]", "result": "> 100 µM (inactive)"}]}, {"smiles": "COC(=O)c1sc(-c2ccccc2)cc1NC(=O)c1cc(OC)cc(OC)c1", "values": [{"measurement": "EC50", "setting": "[4]", "result": "25.3 µM (active)"}, {"measurement": "EC50", "setting": "[5]", "result": "21.7 µM (active)"}]}]}
